# In patent publication US8317912B2, “Wet state preservation of mineral slurries” (Arch Chemicals, Inc., priority 2011, dated 2012):
# Test system: contaminated slurry
# Assay: Wet state preservation challenge test: dosed calcium carbonate slurry inoculated repeatedly with contaminated slurry, streaked on nutrient agar, examined for viable colonies; for growth of viable colonies on nutrient agar: key: − = no growth (no visible colonies); <10 = very light growth; + = light growth; ++ = moderate growth; +++ = heavy growth
# Format: cell-based, bacteria
# Parameters: viable colonies on nutrient agar: unit not given here
# Settings: for efficacy in preserving contaminated slurry (summary of Tables 4-8): between 0.03% and 0.09% of biocide A plus the surfactant, compared to biocide A and the surfactant used alone; for growth of viable colonies on nutrient agar: Biocide A 0 %; for test outcome in place of 3rd inoculation: surfactant 0.1, 0.05, 0.025 and 0.01%, test completed after 2nd inoculation
# Protocol: In this example, a calcium carbonate-containing aqueous slurry was sterilized to eradicate bacterial contamination by weighing out 40 g aliquots into 60 g glass bottles and autoclaving the aliquots for 20 minutes at 120° C. A series of samples were prepared by taking the 40 g aliquots of the sterilized slurry and dosing with 0.136, 0.091, 0.046, 0.023, 0.011, and 0% of a biocide composition (“Biocide A”) shown in Table 1 plus 0, 0.01, 0.025, 0.05, and 0.1% of a surfactant as shown in Table 2. All samples were allowed to stand for 24 hours to equilibrate.
# After equilibration, each test sample was inoculated with 0.8 g of a contaminated slurry, the bacteria count of which is shown in Table 3. The samples were incubated at 30° C. After a contact time of 6 hours, 1, 2, 3, or 4 days, a small aliquot of each sample was streaked across the surface of nutrient agar, incubated at 30° C. for 48 hours and the surface was examined for viable colonies. The inoculation and assessment procedures were repeated at 3 or 4 day intervals for a period of 3 inoculations.
# [1] = surfactant 0.01 %, 1st inoculation, 0.2 days
# [2] = surfactant 0.01 %, 1st inoculation, 1 day
# [3] = surfactant 0.01 %, 1st inoculation, 2 days
# [4] = surfactant 0.01 %, 1st inoculation, 3 days
# [5] = surfactant 0.025 %, 1st inoculation, 0.2 days
# [6] = surfactant 0.025 %, 1st inoculation, 1 day
# [7] = surfactant 0.025 %, 1st inoculation, 2 days
# [8] = surfactant 0.025 %, 1st inoculation, 3 days
# [9] = surfactant 0.05 %, 1st inoculation, 0.2 days
# [10] = surfactant 0.05 %, 1st inoculation, 1 day
# [11] = surfactant 0.05 %, 1st inoculation, 2 days
# [12] = surfactant 0.05 %, 1st inoculation, 3 days
# [13] = surfactant 0.1 %, 1st inoculation, 0.2 days
# [14] = surfactant 0.1 %, 1st inoculation, 1 day
# [15] = surfactant 0.1 %, 1st inoculation, 2 days
# [16] = surfactant 0.1 %, 1st inoculation, 3 days
# [17] = Biocide A 0.091%, surfactant 0.01%, 1st inoculation, 0.2 days
# [18] = Biocide A 0.136%, surfactant 0.025%, 3rd inoculation, 1 day
# [19] = Biocide A 0.136%, surfactant 0.05%, 3rd inoculation, 1 day
# [20] = Biocide A 0.091%, surfactant 0.05%, 1st inoculation, 1 day
Compound,efficacy in preserving contaminated slurry (summary of Tables 4-8),growth of viable colonies on nutrient agar [1],growth of viable colonies on nutrient agar [2],growth of viable colonies on nutrient agar [3],growth of viable colonies on nutrient agar [4],growth of viable colonies on nutrient agar [5],growth of viable colonies on nutrient agar [6],growth of viable colonies on nutrient agar [7],growth of viable colonies on nutrient agar [8],growth of viable colonies on nutrient agar [9],growth of viable colonies on nutrient agar [10],growth of viable colonies on nutrient agar [11],growth of viable colonies on nutrient agar [12],growth of viable colonies on nutrient agar [13],growth of viable colonies on nutrient agar [14],growth of viable colonies on nutrient agar [15],growth of viable colonies on nutrient agar [16],test outcome in place of 3rd inoculation (Biocide A 0.023%),viable colonies on nutrient agar [17],viable colonies on nutrient agar [18],also measured
"CCCCCCCCCCCCOS(=O)(=O)[O-].[Na+] [SDS, Sodium dodecyl sulfate]",improved efficacy,+++,+++,+++,+++,+++,+++,+++,+++,+++,+++,+++,+++,+++,+++,+++,+++,,,,"viable colonies on nutrient agar (Biocide A 0.023%, surfactant 0.01%, 1st inoculation, 3 days): <10; viable colonies on nutrient agar (Biocide A 0.023%, surfactant 0.025%, 1st inoculation, 1 day): <10; viable colonies on nutrient agar (Biocide A 0.046%, surfactant 0.01%, 1st inoculation, 1 day): <10; viable colonies on nutrient agar (Biocide A 0.046%, surfactant 0.01%, 3rd inoculation, 3 days): <10; viable colonies on nutrient agar (Biocide A 0.046%, surfactant 0.05%, 1st inoculation, 0.2 days): <10; viable colonies on nutrient agar (Biocide A 0.046%, surfactant 0.05%, 2nd inoculation, 1 day): <10; viable colonies on nutrient agar (Biocide A 0.046%, surfactant 0.1%, 1st inoculation, 0.2 days): <10; viable colonies on nutrient agar (Biocide A 0.046%, surfactant 0.1%, 2nd inoculation, 1 day): <10; viable colonies on nutrient agar (Biocide A 0.091%, surfactant 0.025%, 3rd inoculation, 0.2 days): <10"
CCCCCCCCCCCCc1ccc(S(=O)(=O)O)cc1 [Dodecyl benzene sulfonic acid],improved efficacy,+++,+++,+++,+++,+++,+++,+++,+++,+++,+++,+++,+++,+++,+++,+++,+++,SAMPLES FAILED,<10,<10,"viable colonies on nutrient agar (Biocide A 0.023%, surfactant 0.01%, 1st inoculation, 2 days): <10; viable colonies on nutrient agar (Biocide A 0.023%, surfactant 0.05%, 1st inoculation, 2 days): <10; viable colonies on nutrient agar (Biocide A 0.023%, surfactant 0.05%, 1st inoculation, 3 days): <10; viable colonies on nutrient agar (Biocide A 0.023%, surfactant 0.1%, 1st inoculation, 2 days): <10; viable colonies on nutrient agar (Biocide A 0.023%, surfactant 0.1%, 1st inoculation, 3 days): <10; viable colonies on nutrient agar (Biocide A 0.046%, surfactant 0.025%, 3rd inoculation, 2 days): <10; viable colonies on nutrient agar (Biocide A 0.046%, surfactant 0.05%, 3rd inoculation, 2 days): <10; viable colonies on nutrient agar (Biocide A 0.046%, surfactant 0.1%, 3rd inoculation, 2 days): <10; viable colonies on nutrient agar (Biocide A 0.091%, surfactant 0.01%, 3rd inoculation, 1 day): <10; viable colonies on nutrient agar (Biocide A 0.091%, surfactant 0.05%, 1st inoculation, 0.2 days): <10; viable colonies on nutrient agar (Biocide A 0.091%, surfactant 0.1%, 3rd inoculation, 1 day): <10; viable colonies on nutrient agar (Biocide A 0.136%, surfactant 0.01%, 3rd inoculation, 1 day): <10; viable colonies on nutrient agar [19]: <10"
CCCCC(CC)CN(CCC(=O)[O-])CCC(=O)[O-].[Na+].[Na+] (centres unmarked) [Lakeland AMA LF70 ™],,,,,,,,,,,,,,,,,,SAMPLES FAILED,<10,<10,"viable colonies on nutrient agar (Biocide A 0.046%, surfactant 0.01%, 1st inoculation, 2 days): <10; viable colonies on nutrient agar (Biocide A 0.046%, surfactant 0.1%, 1st inoculation, 2 days): <10; viable colonies on nutrient agar (Biocide A 0.091%, surfactant 0.01%, 3rd inoculation, 2 days): <10; viable colonies on nutrient agar (Biocide A 0.091%, surfactant 0.025%, 1st inoculation, 3 days): <10; viable colonies on nutrient agar [20]: <10; viable colonies on nutrient agar (Biocide A 0.091%, surfactant 0.05%, 1st inoculation, 3 days): <10; viable colonies on nutrient agar (Biocide A 0.091%, surfactant 0.05%, 3rd inoculation, 2 days): <10; viable colonies on nutrient agar (Biocide A 0.091%, surfactant 0.1%, 1st inoculation, 3 days): <10; viable colonies on nutrient agar (Biocide A 0.091%, surfactant 0.1%, 3rd inoculation, 2 days): <10; viable colonies on nutrient agar (Biocide A 0.136%, surfactant 0.01%, 1st inoculation, 3 days): <10; viable colonies on nutrient agar (Biocide A 0.136%, surfactant 0.05%, 1st inoculation, 1 day): <10; viable colonies on nutrient agar (Biocide A 0.136%, surfactant 0.05%, 1st inoculation, 3 days): <10; viable colonies on nutrient agar [19]: <10; viable colonies on nutrient agar (Biocide A 0.136%, surfactant 0.1%, 1st inoculation, 1 day): <10; viable colonies on nutrient agar (Biocide A 0.136%, surfactant 0.1%, 1st inoculation, 3 days): <10"
"CCCCC(CC)COC(=O)CC(C(=O)OCC(CC)CCCC)S(=O)(=O)[O-].[Na+] (centres unmarked) [Aerosol ® OT, Sodium dioctyl suphosuccinate]",improved efficacy,+++,+++,+++,+++,+++,+++,+++,+++,+++,+++,+++,+++,+++,+++,+++,+++,SAMPLES FAILED,,,"viable colonies on nutrient agar (Biocide A 0.091%, surfactant 0.01%, 1st inoculation, 1 day): <10; viable colonies on nutrient agar [20]: <10; viable colonies on nutrient agar (Biocide A 0.136%, surfactant 0.025%, 1st inoculation, 1 day): <10"
